# Read-outs that look alike come from different tables or passages of the source.
# What was measured:
# [1] = system: RHAMM over-expressing LR21 cells; experiment: in vitro random motility assay (scratch wound, HA fragment-stimulated cell migration); type: cell-based; conditions: 50 μg/mL peptide with 500 ng/mL 30-mer HA fragments, 24 hours; relative to PBS control, p<0.05
# Method: FIG. 2: Effect of peptide 15-1 on fibroblast migration, using an in vitro random motility assay. RHAMM over-expressing LR21 cells were plated on a fibronectin-coated surface in Dulbecco's Modified Eagles Medium (DMEM) with 10% fetal bovine serum (FBS). The following day medium was changed to DMEM with 1% FBS, 50 μg/ml peptide, 500 ng/ml 30-mer HA fragment. Random motility was measured microscopically. “Old P15-1” refers to a peptide batch that was used in previous experiments. As control (ctr), PBS was used instead of peptide.
# Functional testing of peptide 15-1 using an in vitro random motility assay. The functional testing of peptide 15-1 using an in vitro random motility assay was done essentially as previously described (16). Briefly, RHAMM over-expressing LR21 cells were plated at 7×10^5 cells/well in fibronectin coated six-well plates using Dulbecco's modified Eagle's medium (DMEM) (Gibco BRL/Invitrogen, Carlsbad, Calif.) containing 10% fetal calf serum (FCS). Confluence of cell monolayers after 24 hours was between 80% and 90%. […] The number of cells that had migrated into the scratch wounds was quantified using NIH image processing software ImageJ as follows. A box adjusted to reach each opposing edge of the wound was placed over 3 randomly assigned parts of each scratch wound and the numbers of cells within the box were counted. […]
# [2] = system: IL-1β-treated human articular chondrocytes; experiment: HA released into the medium of IL-1β-treated human articular chondrocytes (ELSA); type: cell-based; conditions: 10 ng/ml IL-1β, 48 h
# Method: FIG. 7: HA concentration in the medium of human articular chondrocytes is increased by IL-1β. A: RHAMM-mimetic peptide at a concentration of 0.026 μg/ml or 0.052 μg/ml (Pep0.026, Pep0.052) had no effect on the HA release into the medium of IL-1β-treated chondrocytes. […] Human articular chondrocytes were serum-starved for 24 h followed by treatment of these cells with 10 ng/ml IL-1β and various concentrations of the RHAMM-mimetic peptide for 48 h. HA released into the medium was measured by ELSA (ELISA-like) specific assay.
# Chondrocyte Cultures. Human articular chondrocytes were isolated from articular cartilage samples obtained from patients (donor age range 48-67) undergoing total knee replacement surgery at NYU Hospital for Joint Diseases. Knee cartilage was harvested from regions with no macroscopically evident degeneration. The collection of tissue from patients undergoing knee replacement surgery was approved by the Institutional Regulatory Board (IRB) at NYU School of Medicine. Human chondrocytes were isolated from these cartilage samples and cultured as described by us previously (24). […]
# Analysis of HA concentration in Chondrocyte Culture Medium. […] Conditioned media (approximately 1 ml each sample) from chondrocyte cultures were stored frozen at −20° C. until analyzed. […]
# [3] = system: full-thickness excisional rat wound; conditions: cited from earlier work
# [4] = system: IL-1β-treated human articular chondrocytes; experiment: mRNA levels of Cox-2 and type II collagen in IL-1β-treated human articular chondrocytes (real time PCR); type: cell-based; conditions: peptide at concentrations up to 64 μg/ml (16, 32, 64), 10 ng/ml IL-1β, 24 h
# Method: FIG. 8: RHAMM-mimetic peptide at concentrations (16, 32, 64 μg/ml) decreased the mRNA levels of Cox-2 (catabolic marker; A) and increased the mRNA levels of type II collagen (α1 (II), articular cartilage marker, B) in IL-1β-treated human articular chondrocytes. […] Data are expressed as mean±SD from three different cultures.
# Chondrocyte Cultures. Human articular chondrocytes were isolated from articular cartilage samples obtained from patients (donor age range 48-67) undergoing total knee replacement surgery at NYU Hospital for Joint Diseases. Knee cartilage was harvested from regions with no macroscopically evident degeneration. […]
# RT-PCR and Real-Time PCR Analysis. mRNA levels of catabolic markers (cyclooxygenase (Cox)-2, interleukin (IL)-6, inducible nitric oxide synthase (iNOS), matrix metalloproteinase (MMP)-13) and articular cartilage markers (aggrecan, type II collagen) were determined by real time PCR analysis as described by us previously (25, 26). […] A 1:100 dilution of the resulting cDNA was used as the template to quantify the relative content of mRNA by real-time PCR (STEPONEPLUS™ System; Applied Biosystems, Foster City, Calif.) with the appropriate primers and SYBR Green. […] The cycle threshold values for 18 S RNA and the samples were measured and calculated by computer software.
# SW982 synovial cell line = experiment: mRNA levels of catabolic markers in IL-1β-treated SW982 synovial fibroblasts (real time PCR); type: cell-based; conditions: 52 ng/ml peptide, 10 ng/ml IL-1β, 24 h
# Method: FIG. 9: RHAMM-mimetic peptide decreased the mRNA levels of catabolic markers (Cox-2, IL-6, MMP-13) in the SW982 synovial cell line. SW982 cells after being serum-starved for 24 h were treated with RHAMM-mimetic peptide of SEQ ID NO:1 (Pep) at a concentration of 52 ng/ml for 24 h. mRNA levels of Cox-2, IL-6 and MMP-13 were determined by real time PCR using SYBR Green and normalized to the 18 S RNA. mRNA levels are expressed as relative units with the mRNA levels of untreated cells set as 1. Data are expressed as mean±SD from the results of three different cultures.
# The synovial fibroblast cell line SW982 was used between passage 3 and passage 7 and cultured in DMEM containing 10% fetal calf serum until the cells reached confluence. Cells were then serum-starved for 24 h and then treated with 10 ng/ml recombinant human IL-1β and 52 ng/ml RHAMM-mimetic peptide for 48 h.
# (§1) RT-PCR and Real-Time PCR Analysis. mRNA levels of catabolic markers (cyclooxygenase (Cox)-2, interleukin (IL)-6, inducible nitric oxide synthase (iNOS), matrix metalloproteinase (MMP)-13) and articular cartilage markers (aggrecan, type II collagen) were determined by real time PCR analysis as described by us previously (25, 26). Briefly, total RNA was isolated from chondrocyte cultures using the RNEASY minikit (Qiagen, Valencia, Calif.). One μg of total RNA was reverse transcribed by using an OMNISCRIPT RT kit (Qiagen). A 1:100 dilution of the resulting cDNA was used as the template to quantify the relative content of mRNA by real-time PCR (STEPONEPLUS™ System; Applied Biosystems, Foster City, Calif.) with the appropriate primers and SYBR Green. PCRs were performed with a SYBR Green PCR Master Mix kit (Applied Biosystems), at 95° C. for 10 min followed by 40 cycles at 95° C. for 15 s and 60° C. for 1 min, and 1 cycle at 95° C. for 15 s and 60° C. for 1 min. The 18 S RNA was amplified at the same time and used as an internal control. The cycle threshold values for 18 S RNA and the samples were measured and calculated by computer software.
# skin wound repair = conditions: cited from earlier work
# [5] = system: serum-starved human articular chondrocytes; experiment: mRNA levels of catabolic and articular cartilage markers in serum-starved human articular chondrocytes (real time PCR); type: cell-based; conditions: 48 h
# Method: FIG. 6: RHAMM-mimetic peptide at concentrations up to 5 μg/ml decreased the mRNA levels of iNOS and MMP-13 (catabolic markers; A) and increased the mRNA levels of type II collagen (α1(II), articular cartilage marker, B) in serum-starved human articular chondrocytes. […] In addition, […] of peptide decreased the mRNA levels of type II collagen. Human articular chondrocytes after being serum-starved for 24 h were treated with RHAMM-mimetic peptide of SEQ ID NO:1 (Pep.) at various concentrations (0, 26, 52, 520, 1000, 5000 ng/ml) for 48 h. mRNA levels of iNOS, MMP-13, and type II collagen were determined by real time PCR using SYBR Green and normalized to the 18 S RNA. mRNA levels are expressed as relative units with the mRNA levels of untreated cells set as 1. Data are expressed as mean±SD from the results of three different cultures.
# Chondrocyte Cultures. Human articular chondrocytes were isolated from articular cartilage samples obtained from patients (donor age range 48-67) undergoing total knee replacement surgery at NYU Hospital for Joint Diseases. Knee cartilage was harvested from regions with no macroscopically evident degeneration. The collection of tissue from patients undergoing knee replacement surgery was approved by the Institutional Regulatory Board (IRB) at NYU School of Medicine. Human chondrocytes were isolated from these cartilage samples and cultured as described by us previously (24). Before human chondrocyte cultures were treated with inflammatory stimulus (interleukin-1beta (IL-1β), chondrocyte cultures were switched to serum-free medium for 24 h followed by treatment with the inflammatory stimulus. Cells were treated with 10 ng/ml human recombinant IL-1β in phosphate-buffered saline (PBS)/0.1% BSA. In addition, serum-starved cells were treated with RHAMM-mimetic peptide at various concentrations, HMWHA (ORTHOVISC) at a concentration of 1000 μg/ml, and a combination at four different weight ratios (1:60, 1:30, 1:15, 1:8) of peptide and HMWHA. Cells were treated with these various agents for 24 or 48 h under serum-free conditions.
# as §1
# recombinant RHAMM = molecular target: T1, recombinant RHAMM (Homo sapiens, UniProt O75330); conditions: cited from earlier work
# T1 sequence (O75330 1-724): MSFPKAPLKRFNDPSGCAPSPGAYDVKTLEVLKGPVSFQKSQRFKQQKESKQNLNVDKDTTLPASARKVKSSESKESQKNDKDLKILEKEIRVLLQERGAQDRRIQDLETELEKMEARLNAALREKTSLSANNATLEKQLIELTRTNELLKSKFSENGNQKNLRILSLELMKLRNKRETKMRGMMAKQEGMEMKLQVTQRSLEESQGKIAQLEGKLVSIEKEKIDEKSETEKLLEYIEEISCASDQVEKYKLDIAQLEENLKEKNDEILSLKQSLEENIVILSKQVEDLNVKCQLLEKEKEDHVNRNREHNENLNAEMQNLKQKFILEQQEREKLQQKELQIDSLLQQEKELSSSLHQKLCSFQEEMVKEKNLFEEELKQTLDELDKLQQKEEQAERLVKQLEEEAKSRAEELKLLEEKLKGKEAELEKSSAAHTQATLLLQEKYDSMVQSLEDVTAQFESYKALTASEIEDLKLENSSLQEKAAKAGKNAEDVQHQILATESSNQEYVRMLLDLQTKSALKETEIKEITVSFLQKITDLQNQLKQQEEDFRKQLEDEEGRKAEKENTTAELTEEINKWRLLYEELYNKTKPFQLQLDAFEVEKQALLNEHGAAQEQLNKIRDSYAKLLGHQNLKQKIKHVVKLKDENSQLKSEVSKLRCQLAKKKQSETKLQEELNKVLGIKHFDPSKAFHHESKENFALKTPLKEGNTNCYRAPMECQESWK
# [6] = applied once to the wound, compared to scrambled, negative control peptide
# [7] = all concentrations tested (0.026, 0.052, 0.520, 1, 5, 800 μg/ml), vs untreated cells
sequence,measurement,setting,value
STMMSRSHKTRSHHV [RHAMM-mimetic peptide],reduction in fibroblast migration (number of cells migrated into the scratch wounds),[1],statistically significant
same,HA concentration in conditioned medium (increase caused by IL-1β),[2]; peptide 26 ng/ml or 52 ng/ml,little effect
same,HA concentration in conditioned medium (increase caused by IL-1β),[2]; peptide 17 μg/ml,significantly reduced
same,scarless healing,[3]; applied once to a full-thickness excisional rat wound,promoted a form of scarless healing
same,blood vessel density,[3]; [6],reduced
same,fibroblast number,[3]; [6],reduced
same,macrophage number,[3]; [6],reduced
same,type of healing / fibrosis,"[3]; excisional skin wounds, rat model",regenerative type of healing with reduced fibrosis
same,Cox-2 mRNA levels,[4],decreased
same,type II collagen mRNA level,[4],increased
same,Cox-2 mRNA levels,SW982 synovial cell line,markedly reduced
same,IL-6 mRNA levels,SW982 synovial cell line,markedly reduced
same,MMP-13 mRNA levels,SW982 synovial cell line,markedly reduced
same,wound repair,skin wound repair; RHAMM−/− mice,not
same,wound repair,skin wound repair; wild type mice,altered
same,"decrease of mRNA levels of the catabolic markers (iNOS, MMP-13)",[5]; 800 μg/ml compared with lower concentrations of the peptide,not as effective
same,type II collagen mRNA level,"[5]; 800 μg/ml, compared to untreated cells",decreased
same,MMP-13 mRNA levels,[5]; [7],decreased
same,iNOS mRNA levels,[5]; [7],decreased
same,type II collagen mRNA levels,"[5]; concentrations up to 5 μg/ml, vs untreated cells",increased
same,binding of HA fragments to recombinant RHAMM,recombinant RHAMM,markedly reduced

# Reference: patent US20170239318A1, “COMPOSITONS AND METHODS FOR CARTILAGE DEFECT REPAIR USING A RHAMM-MIMETIC PEPTIDE” (New York University, priority 2014, published 2017)
